# Several values for one entry are separate records, joined by “and”; a condition that tells them apart may be missing. Equal entries are not always repeated.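 Five compound concentrations were applied to cells in 96-well plates for 48 hours; endpoints were derived by simple linear interpolation of the resulting dose-response curve. Here, GI50 denotes the concentration required for 50% inhibition of growth. TGI denotes the concentration required for complete inhibition of growth.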
# How the values were obtained:
# Assay in all cases: growth of human tumour cells (NCI), 48 h
# HT29 colon = system: HT29 colon
# K-562 leukemia = system: K-562 leukemia
# KM12 colon = system: KM12 colon
# LOX IMVI melanoma = system: LOX IMVI melanoma
# MOLT-4 leukemia = system: MOLT-4 leukemia
# NCI-H522 lung = system: NCI-H522 lung
# OVCAR-4 ovarian = system: OVCAR-4 ovarian
# OVCAR-5 ovarian = system: OVCAR-5 ovarian
# SNB-19 CNS = system: SNB-19 CNS
# SW-620 colon = system: SW-620 colon
Structure (SMILES),GI50 (HT29 colon),TGI (HT29 colon),GI50 (K-562 leukemia),TGI (K-562 leukemia),GI50 (KM12 colon),TGI (KM12 colon),GI50 (LOX IMVI melanoma),TGI (LOX IMVI melanoma),GI50 (MOLT-4 leukemia),TGI (MOLT-4 leukemia),GI50 (NCI-H522 lung),TGI (NCI-H522 lung),GI50 (OVCAR-4 ovarian),TGI (OVCAR-4 ovarian),GI50 (OVCAR-5 ovarian),TGI (OVCAR-5 ovarian),GI50 (SNB-19 CNS),TGI (SNB-19 CNS),TGI (SW-620 colon),GI50 (SW-620 colon)
CCOC(=O)c1c2c(n3ccccc13)C(=O)c1ncccc1C2=O,1.63 µM,5.68 µM,0.0745 µM,> 100 µM,0.27 µM,75.9 µM,0.0413 µM,1.78 µM,2.43 µM,76.8 µM,0.419 µM,3.72 µM,0.687 µM,12.3 µM,1.8 µM,27.5 µM,0.0587 µM,13.7 µM,–,–
CCOc1ccc2nc(NC(=O)C(=O)C(c3cnc4ccccc4n3)[N+](=O)[O-])sc2c1 (stereo not drawn),–,> 100 µM,–,> 100 µM,–,> 100 µM,–,> 100 µM,–,> 100 µM,–,> 100 µM,–,> 100 µM,–,> 100 µM,–,> 100 µM,–,–
CN(C)c1ccc(/C=c2\sc3nc4ccccc4n3c2=O)cc1,–,> 100 µM,–,> 100 µM,–,> 100 µM,–,> 100 µM,–,–,–,> 100 µM,–,> 100 µM,–,> 100 µM,–,> 100 µM,> 100 µM,–
CC(C)OP(=O)(NC(=S)c1ccccc1)OC(C)C,–,> 100 µM,–,> 100 µM,–,> 100 µM,–,> 100 µM,–,> 100 µM,–,–,–,> 100 µM,–,> 100 µM,–,> 100 µM,> 100 µM,–
Cc1ccc(Cl)cc1NC(=O)c1sc2nc3c(cc2c1N)C(=O)CCC3,3.54 µM,> 100 µM,3.48 µM,> 100 µM,3.65 µM,> 100 µM,–,–,> 100 µM,> 100 µM,2.17 µM,4.95 µM,> 100 µM,> 100 µM,> 100 µM,> 100 µM,5.64 µM,> 100 µM,> 100 µM,3.68 µM
COc1cccc(NC(=O)/C(Cc2nc3ccccc3nc2C)=N/NC(=O)C[n+]2ccccc2)c1,–,> 100 µM,–,> 100 µM,–,> 100 µM,–,> 100 µM,–,> 100 µM,–,–,–,> 100 µM,–,> 100 µM,–,> 100 µM,25.6 µM,–
O=c1c(O)c(-c2cc(O)c(O)c(O)c2)oc2cc(O)cc(O)c12,–,38.9 µM,–,> 100 µM,–,33.1 µM,–,31 µM,–,> 100 µM,–,> 100 µM,–,30.2 µM,–,> 100 µM,–,–,36 µM,–
S=P(N1CC1)(N1CC1)N1CC1,–,66.7 µM and 500 µM and 617 µM,24.5 µM,834 µM and 911 µM,27 µM,–,7.14 µM and 54.5 µM,42 µM and 307 µM and 294 µM,1.27 µM,53.4 µM and 334 µM and 54.9 µM,15 µM and 125 µM,33.6 µM and 273 µM and 329 µM,–,–,–,–,18.5 µM and 180 µM,> 78.4 µM and 719 µM and 787 µM,–,–
Cc1cc2c(C)nn(Cc3ccc(Cl)cc3)c2c(C#N)c1C,–,–,–,–,–,–,–,–,–,–,–,–,–,–,–,> 100 µM,–,> 100 µM,> 100 µM,–
C=CC(Cl)(CBr)CCC(Br)C(C)(C)Cl (stereo not drawn),–,28.9 µM,–,72.4 µM,–,–,–,–,–,21.1 µM,–,24.4 µM,–,34.1 µM,–,31.1 µM,–,32.8 µM,26.2 µM,–
COC(=O)Nc1nc2ccc(Br)cc2[nH]1,–,37.4 µM,–,> 100 µM,–,> 100 µM,–,> 100 µM,–,> 100 µM,–,32.8 µM,–,> 100 µM,–,> 100 µM,–,–,> 100 µM,–
N#C/C(=C\c1ccc(Br)cc1)n1nnc2ccc(F)cc21,–,–,0.332 µM,> 100 µM,1.3 µM,4.04 µM,0.347 µM,1.28 µM,2.18 µM,> 100 µM,0.227 µM,0.858 µM,0.939 µM,5.31 µM,1.87 µM,3.99 µM,1.66 µM,3.16 µM,2.34 µM,0.447 µM
O=C(NC12CC3CC(CC(C3)C1)C2)C(=O)c1c[nH]c2ccccc12,–,15 µM,–,–,–,28.5 µM,–,25.8 µM,–,43.2 µM,–,31.7 µM,–,31.4 µM,–,32.1 µM,–,32.3 µM,–,–
CSc1nc(SC)c2c(CO)c(Br)n(Cc3ccccc3)c2n1,–,> 100 µM,–,–,–,> 100 µM,–,> 100 µM,–,> 100 µM,–,68.8 µM,–,41.7 µM,–,> 100 µM,–,84.3 µM,> 100 µM,–

# From PubChem BioAssay (NCI)
